pIC50: −log10 of the molar value. Like-named read-outs stand apart in the source and are kept apart here.
Legend:
PPARγ = target: T1, PPARγ (Homo sapiens, UniProt P37231); type: cell-based; conditions: for effect on induction by rosiglitazone (coincubation): 0–5 µM NO2-LA isomer with fixed 0.1 µM rosiglitazone; for mean induction as a percentage of induction by 0.1 µM rosiglitazone (100%): ligands at 5 µM, mean of 6–18 determinations ± SEM; for agonist (full or partial): relative to rosiglitazone, defined as full agonist; for PPARγ activation (in words): concentrations as high as 100 µM
T1 sequence (P37231 1-477 isoform P37231-2): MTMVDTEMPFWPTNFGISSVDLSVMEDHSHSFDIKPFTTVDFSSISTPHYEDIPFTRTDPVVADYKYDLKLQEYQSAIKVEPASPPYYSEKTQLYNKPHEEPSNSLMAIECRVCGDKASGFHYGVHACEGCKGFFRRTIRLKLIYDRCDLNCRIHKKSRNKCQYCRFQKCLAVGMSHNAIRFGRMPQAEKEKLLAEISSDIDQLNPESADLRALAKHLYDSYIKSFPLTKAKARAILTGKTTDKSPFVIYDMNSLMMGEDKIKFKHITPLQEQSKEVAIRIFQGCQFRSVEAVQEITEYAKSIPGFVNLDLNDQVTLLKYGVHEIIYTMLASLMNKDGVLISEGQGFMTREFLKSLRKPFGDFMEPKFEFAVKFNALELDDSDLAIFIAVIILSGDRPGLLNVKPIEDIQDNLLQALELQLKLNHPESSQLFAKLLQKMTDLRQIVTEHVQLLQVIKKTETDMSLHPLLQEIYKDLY

[1] = target: T2, GST-hPPARα (recombinant human PPARα) (Homo sapiens, UniProt Q07869); assay: Radioligand competition scintillation proximity binding assay, PPARα
T2 sequence (Q07869 1-468): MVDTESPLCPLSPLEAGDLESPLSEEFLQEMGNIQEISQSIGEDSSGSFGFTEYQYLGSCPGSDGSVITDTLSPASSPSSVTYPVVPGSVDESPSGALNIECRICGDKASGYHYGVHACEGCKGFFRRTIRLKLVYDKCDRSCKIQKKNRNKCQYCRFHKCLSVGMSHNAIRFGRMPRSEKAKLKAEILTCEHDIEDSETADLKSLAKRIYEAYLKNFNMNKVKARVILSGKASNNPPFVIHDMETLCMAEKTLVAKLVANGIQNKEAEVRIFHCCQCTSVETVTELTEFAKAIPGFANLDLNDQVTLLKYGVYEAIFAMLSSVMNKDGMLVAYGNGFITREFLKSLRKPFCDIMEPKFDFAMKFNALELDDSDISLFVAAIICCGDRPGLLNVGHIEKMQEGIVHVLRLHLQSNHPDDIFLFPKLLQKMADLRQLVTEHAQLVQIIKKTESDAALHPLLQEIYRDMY

[2] = target: T3, GST-hPPARγ (recombinant human PPARγ) (Homo sapiens, UniProt P37231); assay: Radioligand competition scintillation proximity binding assay, PPARγ
T3 sequence (P37231 1-505): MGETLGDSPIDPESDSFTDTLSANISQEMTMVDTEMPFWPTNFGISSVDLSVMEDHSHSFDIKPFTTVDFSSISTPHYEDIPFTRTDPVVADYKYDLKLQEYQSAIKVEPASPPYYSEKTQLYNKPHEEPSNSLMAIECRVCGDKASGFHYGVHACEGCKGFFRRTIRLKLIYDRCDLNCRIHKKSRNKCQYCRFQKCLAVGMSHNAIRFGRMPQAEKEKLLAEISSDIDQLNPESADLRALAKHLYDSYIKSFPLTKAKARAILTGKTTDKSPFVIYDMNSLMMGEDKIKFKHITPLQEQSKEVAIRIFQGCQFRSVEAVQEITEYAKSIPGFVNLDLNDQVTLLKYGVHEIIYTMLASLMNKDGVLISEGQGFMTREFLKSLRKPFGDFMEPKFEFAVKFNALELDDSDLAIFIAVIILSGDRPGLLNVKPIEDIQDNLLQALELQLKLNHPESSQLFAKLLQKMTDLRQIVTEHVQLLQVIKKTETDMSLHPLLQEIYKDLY

SMILES	effect on induction by rosiglitazone (coincubation) (PPARγ)	mean induction as a percentage of induction by 0.1 µM rosiglitazone (100%) (PPARγ)	agonist (full or partial) (PPARγ)	agonist (full or partial) (PPARγ; listed as 12-NO2)	agonist (full or partial) (PPARγ; listed as 12-NO2-LA)	apparent affinity for PPARα (in words) [1]	EC50 fold higher than for 12-NO2-LA (PPARγ)	maximum level of PPARγ activation as % of that of the 12-NO2 isomer (PPARγ)	agonist (full or partial) (PPARγ; listed as 13-NO2-LA)	pIC50 [1]	pIC50 [2]	PPARγ activation (in words) (PPARγ)	PPARγ activation (in words) (PPARγ; listed as Linoleic acid)	binding affinity for PPARγ (in words) [2]
CCCCC/C=C(\C/C=C\CCCCCCCC(=O)O)[N+](=O)[O-] [12-NO2-linoleic acid, (9Z,12E)-12-nitrooctadeca-9,12-dienoic acid]	less pronounced	76 ± 9%	partial	nearly full agonist activity	partial agonists	very low	–	–	–	–	–	–	–	–
CCCCC/C(=C\C/C=C\CCCCCCCC(=O)O)[N+](=O)[O-] [13-NO2-linoleic acid, (9Z,12E)-13-nitrooctadeca-9,12-dienoic acid]	significantly reduced the level of induction by rosiglitazone	41 ± 5%	partial	–	–	–	more than 10 fold	~ 50%	partial agonists	< 4.82	6.36	–	–	–
CCCCC/C=C\C/C=C\CCCCCCCC(=O)O [linoleic acid, (9Z,12Z)-octadeca-9,12-dienoic acid, reference compound]	–	–	–	–	–	–	–	–	–	< 4.82	4.97	negligible PPARγ activation	does not support activation	very low affinity
